Tests used:
Conditions in all cases: Compound concentration 10 µM
[1] = biological target: Sodium-dependent dopamine transporter (Homo sapiens) (UniProt Q01959)
Description: PDSP Primary Binding target: SLC6A3 - Compounds are tested at 10 uM concentration, plate are incubated at room temperature in the dark for 90 minutes. Reaction are stopped by vacuum filtration onto 0.3% polyethyleneimine soaked filter mats using Filtermate harvester. Scintilation cocktail is then melted onto microwave-dried filters on a hot plate and the radio activity is counted in Microbia counter.

[2] = biological target: T1, Alpha-1B adrenergic receptor (Homo sapiens) (UniProt P35368)
T1 sequence (whole entry): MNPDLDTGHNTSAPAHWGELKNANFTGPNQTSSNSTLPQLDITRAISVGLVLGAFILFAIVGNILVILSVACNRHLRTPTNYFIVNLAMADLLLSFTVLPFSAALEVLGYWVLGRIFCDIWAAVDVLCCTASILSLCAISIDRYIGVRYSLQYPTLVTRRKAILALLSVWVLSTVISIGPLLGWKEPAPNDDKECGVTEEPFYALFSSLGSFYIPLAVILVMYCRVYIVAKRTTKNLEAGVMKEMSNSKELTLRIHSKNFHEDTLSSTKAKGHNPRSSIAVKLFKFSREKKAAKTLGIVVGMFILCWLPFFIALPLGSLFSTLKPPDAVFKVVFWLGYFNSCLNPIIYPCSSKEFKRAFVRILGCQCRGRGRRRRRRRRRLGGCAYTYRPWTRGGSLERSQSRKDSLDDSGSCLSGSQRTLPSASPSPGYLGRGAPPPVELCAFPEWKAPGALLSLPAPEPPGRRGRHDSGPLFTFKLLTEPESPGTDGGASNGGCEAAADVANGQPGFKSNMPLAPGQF
Description: PDSP Primary Binding target: ADRA1B - Compounds are tested at 10 uM concentration, plate are incubated at room temperature in the dark for 90 minutes. Reaction are stopped by vacuum filtration onto 0.3% polyethyleneimine soaked filter mats using Filtermate harvester. Scintilation cocktail is then melted onto microwave-dried filters on a hot plate and the radio activity is counted in Microbia counter.

[3] = biological target: 5-hydroxytryptamine receptor 5A (Homo sapiens) (UniProt P47898)
Chain of 5-hydroxytryptamine receptor 5A (Homo sapiens) (P47898 whole entry): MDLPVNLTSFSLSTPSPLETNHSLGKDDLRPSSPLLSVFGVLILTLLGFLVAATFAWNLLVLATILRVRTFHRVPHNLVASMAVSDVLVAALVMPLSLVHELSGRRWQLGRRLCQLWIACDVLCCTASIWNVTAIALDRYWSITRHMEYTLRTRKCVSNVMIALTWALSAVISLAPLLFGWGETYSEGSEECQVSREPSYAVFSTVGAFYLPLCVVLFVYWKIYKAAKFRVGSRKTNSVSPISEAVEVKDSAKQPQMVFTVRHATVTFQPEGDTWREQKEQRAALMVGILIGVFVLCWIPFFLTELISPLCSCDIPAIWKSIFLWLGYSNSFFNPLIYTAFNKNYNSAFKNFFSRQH
Description: PDSP Primary Binding target: HTR5A - Compounds are tested at 10 uM concentration, plate are incubated at room temperature in the dark for 90 minutes. Reaction are stopped by vacuum filtration onto 0.3% polyethyleneimine soaked filter mats using Filtermate harvester. Scintilation cocktail is then melted onto microwave-dried filters on a hot plate and the radio activity is counted in Microbia counter.

[4] = biological target: 5-hydroxytryptamine receptor 1E (Homo sapiens) (UniProt P28566)
Chain of 5-hydroxytryptamine receptor 1E (Homo sapiens) (P28566 whole entry): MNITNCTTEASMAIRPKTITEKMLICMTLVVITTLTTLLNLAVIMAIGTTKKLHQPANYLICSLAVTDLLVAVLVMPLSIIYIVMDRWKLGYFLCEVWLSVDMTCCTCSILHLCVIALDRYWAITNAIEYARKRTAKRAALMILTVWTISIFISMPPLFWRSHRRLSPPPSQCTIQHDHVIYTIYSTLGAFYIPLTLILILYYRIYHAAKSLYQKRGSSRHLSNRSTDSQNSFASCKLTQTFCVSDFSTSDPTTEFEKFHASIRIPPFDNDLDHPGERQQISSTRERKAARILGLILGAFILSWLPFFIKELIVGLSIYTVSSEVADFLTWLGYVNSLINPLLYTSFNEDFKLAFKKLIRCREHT
Description: PDSP Primary Binding target: HTR1E - Compounds are tested at 10 uM concentration, plate are incubated at room temperature in the dark for 90 minutes. Reaction are stopped by vacuum filtration onto 0.3% polyethyleneimine soaked filter mats using Filtermate harvester. Scintilation cocktail is then melted onto microwave-dried filters on a hot plate and the radio activity is counted in Microbia counter.

[5] = biological target: T2, 5-hydroxytryptamine receptor 3A (Homo sapiens) (UniProt P46098)
T2 sequence (whole entry): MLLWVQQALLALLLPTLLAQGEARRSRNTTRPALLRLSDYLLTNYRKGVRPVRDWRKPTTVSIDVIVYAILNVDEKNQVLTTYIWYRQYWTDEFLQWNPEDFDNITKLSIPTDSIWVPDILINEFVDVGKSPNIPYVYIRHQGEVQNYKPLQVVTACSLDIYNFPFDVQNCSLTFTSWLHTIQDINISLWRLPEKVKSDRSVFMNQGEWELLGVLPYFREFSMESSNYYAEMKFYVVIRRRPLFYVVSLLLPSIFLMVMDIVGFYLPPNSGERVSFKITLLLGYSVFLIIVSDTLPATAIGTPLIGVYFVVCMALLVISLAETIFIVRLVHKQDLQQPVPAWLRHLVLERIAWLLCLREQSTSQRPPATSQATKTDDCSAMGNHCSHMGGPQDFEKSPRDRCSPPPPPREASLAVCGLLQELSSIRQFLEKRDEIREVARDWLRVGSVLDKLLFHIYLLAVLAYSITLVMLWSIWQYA
Description: PDSP Primary Binding target: HTR3A - Compounds are tested at 10 uM concentration, plate are incubated at room temperature in the dark for 90 minutes. Reaction are stopped by vacuum filtration onto 0.3% polyethyleneimine soaked filter mats using Filtermate harvester. Scintilation cocktail is then melted onto microwave-dried filters on a hot plate and the radio activity is counted in Microbia counter.

[6] = biological target: Sigma non-opioid intracellular receptor 1 (Homo sapiens) (UniProt Q99720)
Chain of Sigma non-opioid intracellular receptor 1 (Homo sapiens) (Q99720 whole entry): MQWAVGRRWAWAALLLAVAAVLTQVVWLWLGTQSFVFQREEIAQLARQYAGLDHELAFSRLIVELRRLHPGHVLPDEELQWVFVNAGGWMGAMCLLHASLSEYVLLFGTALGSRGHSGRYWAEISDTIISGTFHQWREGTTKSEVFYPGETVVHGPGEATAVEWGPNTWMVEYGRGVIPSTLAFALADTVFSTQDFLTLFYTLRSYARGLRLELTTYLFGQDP
Description: PDSP Primary Binding target: SIGMAR1 - Compounds are tested at 10 uM concentration, plate are incubated at room temperature in the dark for 90 minutes. Reaction are stopped by vacuum filtration onto 0.3% polyethyleneimine soaked filter mats using Filtermate harvester. Scintilation cocktail is then melted onto microwave-dried filters on a hot plate and the radio activity is counted in Microbia counter.

[7] = biological target: D(1A) dopamine receptor (Homo sapiens) (UniProt P21728)
Chain of D(1A) dopamine receptor (Homo sapiens) (P21728 whole entry): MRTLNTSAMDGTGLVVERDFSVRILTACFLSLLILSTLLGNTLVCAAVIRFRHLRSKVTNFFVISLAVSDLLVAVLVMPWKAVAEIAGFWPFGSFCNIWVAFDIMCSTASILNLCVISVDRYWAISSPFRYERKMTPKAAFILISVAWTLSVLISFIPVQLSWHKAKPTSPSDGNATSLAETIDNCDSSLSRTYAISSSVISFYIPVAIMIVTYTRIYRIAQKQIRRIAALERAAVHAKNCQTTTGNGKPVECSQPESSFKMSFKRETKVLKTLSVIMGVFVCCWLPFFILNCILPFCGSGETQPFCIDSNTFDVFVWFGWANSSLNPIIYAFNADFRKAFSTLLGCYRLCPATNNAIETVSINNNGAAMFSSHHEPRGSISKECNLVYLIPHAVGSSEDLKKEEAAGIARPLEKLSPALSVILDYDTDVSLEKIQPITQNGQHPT
Description: PDSP Primary Binding target: DRD1 - Compounds are tested at 10 uM concentration, plate are incubated at room temperature in the dark for 90 minutes. Reaction are stopped by vacuum filtration onto 0.3% polyethyleneimine soaked filter mats using Filtermate harvester. Scintilation cocktail is then melted onto microwave-dried filters on a hot plate and the radio activity is counted in Microbia counter.

[8] = biological target: T3, Alpha-2A adrenergic receptor (Homo sapiens) (UniProt P08913)
T3 sequence (whole entry): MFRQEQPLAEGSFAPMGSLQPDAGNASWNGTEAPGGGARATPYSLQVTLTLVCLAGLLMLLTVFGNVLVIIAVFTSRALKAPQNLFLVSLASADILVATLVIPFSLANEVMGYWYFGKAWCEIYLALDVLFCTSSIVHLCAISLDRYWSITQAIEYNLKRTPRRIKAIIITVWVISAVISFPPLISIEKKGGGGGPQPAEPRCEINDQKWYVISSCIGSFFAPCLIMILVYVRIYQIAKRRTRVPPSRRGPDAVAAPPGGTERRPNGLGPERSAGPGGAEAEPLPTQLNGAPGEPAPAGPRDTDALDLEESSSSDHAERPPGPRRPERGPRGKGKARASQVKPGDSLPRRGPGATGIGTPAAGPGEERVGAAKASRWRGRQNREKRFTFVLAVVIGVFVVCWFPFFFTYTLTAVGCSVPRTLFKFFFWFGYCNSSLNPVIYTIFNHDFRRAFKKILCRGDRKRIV
Description: PDSP Primary Binding target: ADRA2A - Compounds are tested at 10 uM concentration, plate are incubated at room temperature in the dark for 90 minutes. Reaction are stopped by vacuum filtration onto 0.3% polyethyleneimine soaked filter mats using Filtermate harvester. Scintilation cocktail is then melted onto microwave-dried filters on a hot plate and the radio activity is counted in Microbia counter.

[9] = biological target: D(2) dopamine receptor (Homo sapiens) (UniProt P14416)
Chain of D(2) dopamine receptor (Homo sapiens) (P14416 whole entry): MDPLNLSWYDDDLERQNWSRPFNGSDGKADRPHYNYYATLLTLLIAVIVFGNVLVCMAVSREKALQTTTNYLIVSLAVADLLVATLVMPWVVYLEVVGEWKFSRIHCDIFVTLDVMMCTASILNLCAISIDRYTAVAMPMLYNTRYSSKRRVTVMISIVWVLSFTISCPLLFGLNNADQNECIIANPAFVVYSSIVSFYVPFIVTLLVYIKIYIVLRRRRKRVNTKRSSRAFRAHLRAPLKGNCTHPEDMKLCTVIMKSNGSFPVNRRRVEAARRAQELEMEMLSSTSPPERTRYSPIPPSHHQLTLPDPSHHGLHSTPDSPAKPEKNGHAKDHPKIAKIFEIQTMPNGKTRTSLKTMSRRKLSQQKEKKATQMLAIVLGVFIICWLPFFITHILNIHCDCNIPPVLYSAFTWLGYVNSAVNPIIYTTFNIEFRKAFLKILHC
Description: PDSP Primary Binding target: DRD2 - Compounds are tested at 10 uM concentration, plate are incubated at room temperature in the dark for 90 minutes. Reaction are stopped by vacuum filtration onto 0.3% polyethyleneimine soaked filter mats using Filtermate harvester. Scintilation cocktail is then melted onto microwave-dried filters on a hot plate and the radio activity is counted in Microbia counter.

[10] = biological target: Sodium-dependent serotonin transporter (Homo sapiens) (UniProt P31645)
Chain of Sodium-dependent serotonin transporter (Homo sapiens) (P31645 whole entry, looked up): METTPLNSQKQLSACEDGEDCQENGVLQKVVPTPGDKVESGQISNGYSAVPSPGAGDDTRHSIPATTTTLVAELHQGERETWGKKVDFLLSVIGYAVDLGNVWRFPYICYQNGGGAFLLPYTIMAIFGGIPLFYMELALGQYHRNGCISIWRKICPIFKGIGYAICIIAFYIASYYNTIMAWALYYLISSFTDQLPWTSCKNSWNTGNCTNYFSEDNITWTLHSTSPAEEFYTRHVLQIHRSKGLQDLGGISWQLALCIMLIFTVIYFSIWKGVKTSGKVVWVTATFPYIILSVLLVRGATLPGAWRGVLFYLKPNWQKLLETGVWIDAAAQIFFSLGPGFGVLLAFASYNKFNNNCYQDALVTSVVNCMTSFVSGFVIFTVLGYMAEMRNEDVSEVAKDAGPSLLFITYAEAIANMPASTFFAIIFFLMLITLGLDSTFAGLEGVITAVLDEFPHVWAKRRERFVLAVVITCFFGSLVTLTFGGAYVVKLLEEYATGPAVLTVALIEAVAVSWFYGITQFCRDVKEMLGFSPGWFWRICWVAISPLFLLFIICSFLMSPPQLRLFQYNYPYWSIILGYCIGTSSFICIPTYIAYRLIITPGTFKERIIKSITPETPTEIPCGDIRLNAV
Description: PDSP Primary Binding target: SLC6A4 - Compounds are tested at 10 uM concentration, plate are incubated at room temperature in the dark for 90 minutes. Reaction are stopped by vacuum filtration onto 0.3% polyethyleneimine soaked filter mats using Filtermate harvester. Scintilation cocktail is then melted onto microwave-dried filters on a hot plate and the radio activity is counted in Microbia counter.

[11] = biological target: Histamine H1 receptor (Homo sapiens) (UniProt P35367)
Chain of Histamine H1 receptor (Homo sapiens) (P35367 whole entry): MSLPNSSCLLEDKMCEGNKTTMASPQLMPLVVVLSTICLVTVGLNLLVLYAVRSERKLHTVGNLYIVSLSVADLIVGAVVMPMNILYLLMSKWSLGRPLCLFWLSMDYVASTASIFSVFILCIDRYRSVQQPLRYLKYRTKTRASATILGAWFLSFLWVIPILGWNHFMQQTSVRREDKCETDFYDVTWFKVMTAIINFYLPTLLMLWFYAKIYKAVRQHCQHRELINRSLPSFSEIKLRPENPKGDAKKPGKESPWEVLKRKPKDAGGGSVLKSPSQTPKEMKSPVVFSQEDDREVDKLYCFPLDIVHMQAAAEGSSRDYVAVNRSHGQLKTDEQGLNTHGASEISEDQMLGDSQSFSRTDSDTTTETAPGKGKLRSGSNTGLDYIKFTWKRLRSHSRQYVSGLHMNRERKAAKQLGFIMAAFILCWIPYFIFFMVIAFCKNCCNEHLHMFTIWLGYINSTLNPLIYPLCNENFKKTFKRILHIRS
Description: PDSP Primary Binding target: HRH1 - Compounds are tested at 10 uM concentration, plate are incubated at room temperature in the dark for 90 minutes. Reaction are stopped by vacuum filtration onto 0.3% polyethyleneimine soaked filter mats using Filtermate harvester. Scintilation cocktail is then melted onto microwave-dried filters on a hot plate and the radio activity is counted in Microbia counter.

[12] = biological target: Translocator protein (Homo sapiens) (UniProt P30536)
Chain of Translocator protein (Homo sapiens) (P30536 whole entry): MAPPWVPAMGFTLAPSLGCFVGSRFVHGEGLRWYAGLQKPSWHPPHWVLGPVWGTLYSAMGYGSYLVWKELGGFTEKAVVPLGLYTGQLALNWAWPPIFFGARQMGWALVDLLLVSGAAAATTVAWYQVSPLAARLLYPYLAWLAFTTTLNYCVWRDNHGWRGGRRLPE
Description: PDSP Primary Binding target: TSPO - Compounds are tested at 10 uM concentration, plate are incubated at room temperature in the dark for 90 minutes. Reaction are stopped by vacuum filtration onto 0.3% polyethyleneimine soaked filter mats using Filtermate harvester. Scintilation cocktail is then melted onto microwave-dried filters on a hot plate and the radio activity is counted in Microbia counter.

[13] = biological target: T4, Muscarinic acetylcholine receptor M4 (Homo sapiens) (UniProt P08173)
T4 sequence (whole entry): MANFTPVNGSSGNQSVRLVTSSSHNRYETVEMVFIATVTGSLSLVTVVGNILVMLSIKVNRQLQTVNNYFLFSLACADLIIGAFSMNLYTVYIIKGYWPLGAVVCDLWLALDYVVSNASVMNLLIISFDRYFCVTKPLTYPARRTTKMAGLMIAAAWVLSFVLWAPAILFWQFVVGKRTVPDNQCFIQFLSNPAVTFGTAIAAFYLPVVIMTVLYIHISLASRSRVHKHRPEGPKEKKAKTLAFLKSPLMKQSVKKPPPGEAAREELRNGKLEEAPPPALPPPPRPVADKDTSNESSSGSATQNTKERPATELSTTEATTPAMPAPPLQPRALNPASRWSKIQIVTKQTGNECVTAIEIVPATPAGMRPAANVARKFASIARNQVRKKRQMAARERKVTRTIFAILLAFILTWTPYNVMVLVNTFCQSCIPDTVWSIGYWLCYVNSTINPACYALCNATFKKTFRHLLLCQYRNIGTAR
Description: PDSP Primary Binding target: CHRM4 - Compounds are tested at 10 uM concentration, plate are incubated at room temperature in the dark for 90 minutes. Reaction are stopped by vacuum filtration onto 0.3% polyethyleneimine soaked filter mats using Filtermate harvester. Scintilation cocktail is then melted onto microwave-dried filters on a hot plate and the radio activity is counted in Microbia counter.

[14] = biological target: Sodium-dependent noradrenaline transporter (Homo sapiens) (UniProt P23975)
Chain of Sodium-dependent noradrenaline transporter (Homo sapiens) (P23975 whole entry): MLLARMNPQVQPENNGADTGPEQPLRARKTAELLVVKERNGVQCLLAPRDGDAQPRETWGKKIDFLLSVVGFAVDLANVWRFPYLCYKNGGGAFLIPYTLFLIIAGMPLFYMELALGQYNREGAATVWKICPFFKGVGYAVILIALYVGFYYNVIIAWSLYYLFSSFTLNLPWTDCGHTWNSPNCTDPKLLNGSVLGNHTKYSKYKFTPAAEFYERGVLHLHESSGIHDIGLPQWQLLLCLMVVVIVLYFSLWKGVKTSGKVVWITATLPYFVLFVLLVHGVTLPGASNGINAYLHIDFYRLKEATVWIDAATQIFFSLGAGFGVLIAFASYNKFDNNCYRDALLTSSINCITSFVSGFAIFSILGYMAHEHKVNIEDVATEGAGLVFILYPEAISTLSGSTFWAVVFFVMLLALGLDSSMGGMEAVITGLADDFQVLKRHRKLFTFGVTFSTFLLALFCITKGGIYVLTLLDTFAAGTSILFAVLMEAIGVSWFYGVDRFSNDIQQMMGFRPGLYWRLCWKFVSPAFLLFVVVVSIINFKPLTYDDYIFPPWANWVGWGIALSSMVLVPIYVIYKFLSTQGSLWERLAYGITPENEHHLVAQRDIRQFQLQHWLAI
Description: PDSP Primary Binding target: SLC6A2 - Compounds are tested at 10 uM concentration, plate are incubated at room temperature in the dark for 90 minutes. Reaction are stopped by vacuum filtration onto 0.3% polyethyleneimine soaked filter mats using Filtermate harvester. Scintilation cocktail is then melted onto microwave-dried filters on a hot plate and the radio activity is counted in Microbia counter.

Chain of Sodium-dependent dopamine transporter (Homo sapiens) (Q01959 whole entry): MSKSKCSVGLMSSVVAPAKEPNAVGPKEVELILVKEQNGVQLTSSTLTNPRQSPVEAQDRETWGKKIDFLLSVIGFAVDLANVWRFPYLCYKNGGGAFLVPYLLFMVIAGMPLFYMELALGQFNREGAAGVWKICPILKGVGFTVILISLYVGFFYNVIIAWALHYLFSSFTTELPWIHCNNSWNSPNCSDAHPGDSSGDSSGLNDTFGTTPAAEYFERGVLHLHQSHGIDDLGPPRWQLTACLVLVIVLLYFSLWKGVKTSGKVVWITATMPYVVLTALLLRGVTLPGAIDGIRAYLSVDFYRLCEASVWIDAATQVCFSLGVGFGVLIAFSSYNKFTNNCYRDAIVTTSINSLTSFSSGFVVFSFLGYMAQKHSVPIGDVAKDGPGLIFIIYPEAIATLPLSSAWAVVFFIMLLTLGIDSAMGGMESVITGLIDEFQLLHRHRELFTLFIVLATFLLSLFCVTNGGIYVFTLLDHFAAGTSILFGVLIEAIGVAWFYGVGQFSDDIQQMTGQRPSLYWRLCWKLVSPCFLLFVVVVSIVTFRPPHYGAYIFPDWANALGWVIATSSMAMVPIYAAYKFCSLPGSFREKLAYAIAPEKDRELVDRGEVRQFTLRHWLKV

| SMILES | inhibition [1] | inhibition [2] | inhibition [3] | inhibition [4] | inhibition [5] | inhibition [6] | inhibition [7] | inhibition [8] | inhibition [9] | inhibition [10] | inhibition [11] | inhibition [12] | inhibition [13] | inhibition [14] |
| --- | --- | --- | --- | --- | --- | --- | --- | --- | --- | --- | --- | --- | --- | --- |
| N#Cc1ccc2[nH]cc(CCCCN3CCN(c4ccc5oc(C(N)=O)cc5c4)CC3)c2c1 | 99.5% | 53.7% | 40.6% | 21.2% | 46.7% | 99.1% | 22.6% | 70% | 79.4% | 96% | 85.8% | -4.35% | 5.32% | 98.1% |
| CC(C)NCC(O)COc1ccc(CCOCC2CC2)cc1 (configuration not stated) | 27.9% | 19.5% | -3.84% | 5.21% | -0.24% | 91.7% | 1.75% | 20.5% | 3.26% | -2.29% | 1.05% | 4.48% | 22.5% | 45.1% |
| Oc1ccc2c3c1O[C@H]1c4[nH]c5c(c4C[C@@]4(O)[C@@H](C2)N(CC2CC2)CC[C@]314)C[C@@]1(O)[C@H]2Cc3ccc(O)c4c3[C@@]1(CCN2CC1CC1)[C@H]5O4 | -4.44% | -1.68% | 8.31% | – | 6.54% | 9.49% | 33.5% | 6.23% | 1.13% | -6.45% | 9.21% | 21.5% | -2.79% | 12.7% |
| Cc1nc2sccn2c(=O)c1CCN1CCC(=C(c2ccc(F)cc2)c2ccc(F)cc2)CC1 | 68.9% | 95.9% | 94% | 80.8% | 4.51% | 87.3% | 99.5% | 98.8% | 95.4% | 80.8% | 98.3% | 31.2% | 1.18% | 53.7% |
| CCCCN1CCC(COC(=O)c2cc(Cl)c(N)c3c2OCCO3)CC1 | 19.5% | -1.39% | -0.67% | 22.6% | 72.4% | 105% | 3.42% | 66.1% | 43.7% | 14.6% | 55.4% | 0.42% | 5.81% | 42.9% |
| O=S1(=O)c2cccc3cccc(c23)N1CCCN1CCN(c2ccc(F)cc2)CC1 | 75.8% | 98.1% | 58.9% | -4.51% | 32.9% | 89.3% | 59.8% | 96.8% | 41.2% | 81.7% | 96.9% | 28.7% | 1.66% | 65.1% |
| Cc1nc(-c2ccc(-c3ccc(C(=O)N4CCc5cc6c(cc54)C4(CCN(C)CC4)CO6)cc3)c(C)c2)no1 | 70.2% | 16.4% | 14% | 0.78% | 43.9% | 75.2% | 53.5% | 73% | 29% | 41% | 33.8% | 24.4% | 23% | 69.2% |

— ChEMBL document CHEMBL5442219
